Data on two molecules can be found in patent publication US6451356B1, “Antibacterial composition comprising oenostacin from oenothera biennis” (Council of Scientific and Industrial Research, priority 2000, dated 2002).

Type in all cases: cell-based
For one test, the system named is Streptococcus mutans. Kind of test: MIC by two-fold broth dilution, S. mutans. As for the experimental part: (§1) In order to identify the antibacterial chemical entities present in the EtOAc fraction 3 and 4 of O.biennis roots, the fractions are further run on silica gel column chromatography again eluting with varying proportions of chloroform and MeOH. Aliquots of eluate are run on TLC to check for the desired purity of the compound. The pure compounds thus obtained are analyzed for their antibacterial properties by two-fold broth dilution method to determine the minimal inhibitory concentration (MIC). […] The compounds CIM791 and 790 are identified as 3,5-dihydroxy-4-pent-4′-enoyl-1′-oxymethylbenzoic acid (Oenostacin) and gallic acid, respectively, using NMR spectral data.

The subject of test [1] is Staphylococcus epidermidis. Kind of test: MIC by two-fold broth dilution, S. epidermidis. Further details: Minimal inhibitory concentration (MIC) S. epidermidis: unit not given here. As for the experimental part:
CIM 791 is tested for its minimal inhibitory concentration, which is a measure of the growth inhibitory potential of the compound and determined against S. epidermidis by two-fold broth dilution technique.
as §1

For a further test, the system named is Pseudomonas aeruginosa. Description: MIC by two-fold broth dilution, P. aeruginosa. Conditions: Table 5, read-out: Minimal inhibitory concentration (MIC) P. aeruginosa. As for the experimental part:
as §1

SMILES strings stand for the structures. Values after ≈ are worked out from the molar mass of the structure shown. Where two headings read alike, the source gives them in different places.

As to `COC(=O)CC/C=C/c1c(O)cc(C(=O)O)cc1O` [Oenostacin, 3,5-dihydroxy-4-pent-4′-enoyl-1′-oxymethylbenzoic acid], the MIC is 1250 µg/mL (≈ 4.69 mM) in the test on Streptococcus mutans (Table 5, read-out: Minimal inhibitory concentration (MIC) S. mutans) and 31.5 µg/mL (≈ 0.118 mM) in test [1] (Staphylococcus epidermidis, read-out: MIC against Staphylococcus epidermidis). Also, the “activity against Staphylococcus epidermidis (in words)” value in test [1] is on record as “strong activity”. In test [1] (Table 5), the “Minimal inhibitory concentration (MIC) S. epidermidis” value turned out to be 31.5.
`O=C(O)c1cc(O)c(O)c(O)c1` [Gallic acid, gallic acid]: the MIC in the test on Streptococcus mutans (read-out: MIC against Streptococcus mutans) is 625 µg/mL (≈ 3.67 mM); with Pseudomonas aeruginosa it was 1250 µg/mL (≈ 7.35 mM).
